Results on one substance are retold here after paper PMC6977461 (Chemical Science, 2019).

By EC50 is commonly meant the concentration that produces a half-maximal response.

The nature of series [1]: mouse plasma degradation assay (Methods MP1-MP3). The class given is in vitro ADME. Particulars: mouse plasma diluted 1/1 with PBS; mouse plasma/PBS pH 7.4 (1/1), 5 µM, 37 °C, acetonitrile quench, LC-MS extracted ion chromatogram; MP1 for 2-8, MP2 for 9-11, MP3 for 12-14; mean, n = 3; read-out: Mouse plasma t1/2 (converted). As for the experimental part: The oligomer was then diluted 1/50 with a solution of plasma/PBS pH 7.4 (1/1) to afford a final concentration of 5μM and incubated at 37°C. […] (t = 0 min was determined using the reaction without plasma). The samples were frozen at -80°C before analysis. […] The supernatant was analyzed by LC-MS. The time course of oligomer degradation was determined by integrating the area of the peak in the extracted ion chromatogram. […] The oligomer was then diluted 1/50 with a solution of plasma/PBS pH 7.4 (1/1) to afford a final concentration of 5μM and incubated at 37°C. […] The oligomer was then diluted 1/50 with a solution of plasma/PBS pH 7.4 (1/1) to afford a final concentration of 5μM and incubated at 37°C. […] Animals. […] A standard chow diet (RM1 (E) 801492, SDS) and tap water were provided ad libitum. All animal protocols done by Physiogenex S.A.S were reviewed and approved by the local (Comité […] national ([…]

In the next series the target is T1, mouse GLP-1 receptor (Mus musculus, UniProt O35659).
T1 construct: βTC6 cells which express GLP-1R endogenously; host or cells: βTC6 cells
T1 sequence (O35659 22-463): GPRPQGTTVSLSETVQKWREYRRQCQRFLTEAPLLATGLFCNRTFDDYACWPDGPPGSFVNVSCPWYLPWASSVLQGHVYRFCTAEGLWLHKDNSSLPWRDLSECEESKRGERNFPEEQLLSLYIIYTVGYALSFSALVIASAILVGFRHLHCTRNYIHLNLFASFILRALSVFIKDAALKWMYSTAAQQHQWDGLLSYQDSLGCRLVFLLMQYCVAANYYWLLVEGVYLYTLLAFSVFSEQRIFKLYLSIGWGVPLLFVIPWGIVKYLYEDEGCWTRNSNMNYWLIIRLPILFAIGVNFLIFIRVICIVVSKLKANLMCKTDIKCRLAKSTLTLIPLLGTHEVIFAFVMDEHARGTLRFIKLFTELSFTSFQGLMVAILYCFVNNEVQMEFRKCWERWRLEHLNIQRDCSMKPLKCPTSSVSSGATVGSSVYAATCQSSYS
The series can be described thus: cAMP production in βTC6 cells expressing GLP-1R endogenously (Method C2). In kind it is cell-based.

For the next series, the system named is C57BL/6J mice. The series can be described thus: IPGTT in healthy mice 3, 6 or 9 h after i.v. dosing. In kind it is in vivo. Particulars: 1 µg per mouse (10 nmol kg-1) i.v., glucose 2 g kg-1 i.p., fasted 9 h, n = 6, versus vehicle.
Description: Supérieur et de la Recherche) ethics committees (protocol number 05049-06). For the dose-response study, animal procedures were approved by British Home Office under the UK Animal (Scientific Procedures) Act 1986 (Project Licence 70/7596). Lean male C57Bl/6J mice (6-8 weeks of age, body […]
schedule, lights on at 07:00). Ad libitum access to water and normal chow (RM1, Special Diet Services) was provided unless otherwise stated. Mice were housed in groups of five. For the pharmacokinetics studies performed by TechMedILL service (PCBIS platform, CNRS UMS3286), mice were housed in polycarbonate cages (PCT2L12SHT, Allentown) enriched with play tunnels throughout the […]
environment (22 ± 1 °C) with a relative humidity (50 ± 10 %) and a normal 12 hours light cycle (at 8:00 pm lights off). A standard chow diet (A04, SAFE, France) and tap water were provided ad libitum. […]
After the acclimation period of 5 days, 20-25 g male C57Bl/6J mice 8 weeks old (Charles River laboratories) were randomized into groups (6 mice per group) according to their body weight. The mice were acutely treated with vehicle or 1 µg per mouse (10 nmol kg-1) of oligomers via i.v. injections (formulation: 4 µg mL-1 in PBS 1×) IPGTTs (glucose 2 g kg-1 i.p.) were performed after 3 or 6 hours of […]
(§1) Blood glucose was measured before the administration of […]
as §1

The next series has as its target T2, SNAP-tagged human GLP-1R (Homo sapiens, UniProt P43220).
T2 construct: host or cells: INS-1 832/3 cells with endogenous GLP-1R deleted by CRISPR/Cas9
The series can be described thus: SNAP-GLP-1R internalization by confocal microscopy in INS-1 832/3 cells. The class given is cell-based. Particulars: 10 nM ligand, 30 min, versus non-ureido peptides.

In a further series the test system is INS-1 832/3 cells. The series can be described thus: insulin secretion in vitro in INS-1 832/3 cells. The class given is cell-based. The note with it: 16 h stimulation at 11 mM glucose, n = 5, versus non-ureido parents.
In series [2] the target is T3, GLP-1R (Homo sapiens, UniProt P43220). The series can be described thus: cAMP production functional assay in HEK293 cells transfected with GLP-1R (Method C1). In kind it is cell-based. Details: host or cells: HEK-293T. Background: Changes in cAMP serve as a functional read-out for many G protein-coupled receptors.
T3 sequence (P43220 24-463): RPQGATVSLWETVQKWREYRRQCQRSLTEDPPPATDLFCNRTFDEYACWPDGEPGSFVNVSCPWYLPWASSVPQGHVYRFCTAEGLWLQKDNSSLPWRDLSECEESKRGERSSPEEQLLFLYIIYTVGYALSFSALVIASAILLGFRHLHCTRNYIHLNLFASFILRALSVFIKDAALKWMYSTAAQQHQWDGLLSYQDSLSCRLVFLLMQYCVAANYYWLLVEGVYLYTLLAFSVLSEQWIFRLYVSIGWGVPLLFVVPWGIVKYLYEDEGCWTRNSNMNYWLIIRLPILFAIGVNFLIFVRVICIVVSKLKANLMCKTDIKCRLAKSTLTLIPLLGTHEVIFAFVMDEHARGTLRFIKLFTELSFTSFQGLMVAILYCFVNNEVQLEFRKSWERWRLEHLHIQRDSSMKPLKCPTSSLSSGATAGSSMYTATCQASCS
Series [3] concerns the target T3, GLP-1R. The series can be described thus: β-arrestin-2 recruitment assay in PathHunter CHO-GLP-1R cells. In kind it is cell-based. Details: host or cells: PathHunter CHO-GLP-1R-βarr2 cells. Particulars: 30 min stimulation at 37 °C, n = 5, versus non-ureido parents 10 and 13. As for the experimental part:
(§2) signal measured at 665 nm by that measured at 620 nm (ratio). The results are expressed as a percent […]
(§3) tested in each experiment at several concentrations to generate a concentration-response curve from which its EC50 value and SE are calculated using GraphPad Prism.
(§4) In vitro pharmacology on immortalised CHO-GLP-1R cells (EC50: Method C3) PathHunter CHO-GLP-1R cells were stimulated for 30 min at 37°C with indicated concentration of agonist in serum free medium without phosphodiesterase inhibitors. The reaction was terminated by addition of cAMP detection reagents (cAMP Dynamic 2, Cisbio) and read by HTRF.
(§5) β-arrestin-2 recruitment assay […]
(§6) agonist in serum free medium. The reaction was terminated by addition of PathHunter detection reagents (DiscoverX) and luminescent signal recorded.
(§7) Calculation of signal bias
(§8) Biased signalling was quantified using a modified form of the operational model.[6] LogR values were calculated for each ligand in each assay, and ∆LogR were determined by subtracting from the […]
(§9) Bias was then determined as ∆∆LogR by subtracting ∆LogR for […]

Series [4] has as its target T3, GLP-1R. The series can be described thus: signal bias, cAMP vs β-arrestin-2, PathHunter CHO-GLP-1R cells (operational model). The class given is cell-based. Details: host or cells: PathHunter CHO-GLP-1R-βarr2 cells. The note with it: relative to GLP-1-NH2 (2), n = 5. Here is the method:
as §2, §3, §4, §5, §6, §7, §8, §9

*1 amine or outer side, *2 acyl side, *3 side chain or, on linkers, in order; H or OH if unused. The star is where a group is joined. X1 = C[C@@H](CN*)NC(=O)[C@@H](N)Cc1c[nH]cn1; CO = O=C([*:1])[*:2]

T2 sequence (P43220 24-463): as above

As for “{X1-CO}-EGTFTSDLSKQLEEEAVRLFIEWLKNGGPSSGAPPSKKKKKK-NH2 [compound 14]”, in series [1], the half-life at 5 µM was 6.6 h. Further, the “Potency (%), Table S1” value at mouse GLP-1 receptor (from EC50 in βTC6 cAMP assay, footnote: compare to GLP-1-NH2 (2)) is recorded as 118%. Besides, the EC50 on mouse GLP-1 receptor (read-out: EC50 (GLP-1R potency), Table S1) was 0.09 nM; on GLP-1R [2] (HEK-293T cells exogenously expressing human GLP-1R, cAMP by HTRF, 10 min at 37 °C, Method C1, mean, n = 3 (2: n = 6), read-out: EC50 (GLP-1R potency)), 0.0011 nM. Besides, the “blood glucose control, IPGTT 9 h after dosing” value in the series on C57BL/6J mice is given as “strong ability to control blood glucose levels”. The “endocytosis of the GLP-1R” value at SNAP-tagged human GLP-1R is “noticeably reduced”. For the same substance, in the series on INS-1 832/3 cells, the “insulin release in vitro” value is given as “significantly increased insulin release”. The “Potency (%), percentage of potency compared to GLP-1-NH2” value at GLP-1R [2] (from EC50 in HEK293 GLP-1R cAMP assay) stood at 287%. The “recruitment of β-arrestin to GLP-1R” value on GLP-1R [3] was “selectively diminished”. For the same substance, at GLP-1R [4], the “signal bias (cAMP vs β-arrestin-2)” value was “strong preference for cAMP signalling”.
